{"source": "paper PMC6843921", "about": "(Biomolecules, 2019)", "key": {"[1]": {"design": "method as in PMID 9299023", "settings": "smallest reported value for the ATP:Mg^2+ complex; read-out: dissociation constant; cited from earlier work"}, "Taq polymerase [2]": {"target": "T1, Taq polymerase (Thermus aquaticus, UniProt P19821)", "T1 sequence (P19821 whole entry)": "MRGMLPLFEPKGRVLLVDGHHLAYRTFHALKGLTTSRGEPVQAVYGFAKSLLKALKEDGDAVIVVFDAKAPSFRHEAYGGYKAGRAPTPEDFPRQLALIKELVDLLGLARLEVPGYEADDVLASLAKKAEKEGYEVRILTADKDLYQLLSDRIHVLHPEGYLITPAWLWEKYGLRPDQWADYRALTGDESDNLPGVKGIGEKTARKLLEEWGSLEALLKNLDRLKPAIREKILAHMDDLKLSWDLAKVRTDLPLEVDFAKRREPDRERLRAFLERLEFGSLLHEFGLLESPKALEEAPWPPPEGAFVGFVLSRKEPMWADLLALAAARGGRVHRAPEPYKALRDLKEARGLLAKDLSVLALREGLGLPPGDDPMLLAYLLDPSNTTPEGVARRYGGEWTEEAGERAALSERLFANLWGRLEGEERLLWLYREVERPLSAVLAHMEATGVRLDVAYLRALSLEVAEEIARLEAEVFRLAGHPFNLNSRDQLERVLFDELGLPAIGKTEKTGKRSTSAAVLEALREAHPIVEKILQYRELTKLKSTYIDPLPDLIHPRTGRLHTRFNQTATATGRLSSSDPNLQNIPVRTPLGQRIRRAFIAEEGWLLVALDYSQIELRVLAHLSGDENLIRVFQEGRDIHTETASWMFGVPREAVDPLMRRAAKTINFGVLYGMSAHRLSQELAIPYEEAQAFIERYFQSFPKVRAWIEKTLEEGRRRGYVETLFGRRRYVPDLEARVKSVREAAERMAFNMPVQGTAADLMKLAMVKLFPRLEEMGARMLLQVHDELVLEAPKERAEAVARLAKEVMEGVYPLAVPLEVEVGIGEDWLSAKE", "experiment": "biochemical"}, "[3]": {"settings": "EDTA titrated with Mg^2+, pH 7.5, 293 K"}, "mtDUT [4]": {"target": "T2, mtDUT (Mycobacterium tuberculosis, UniProt P9WNS5)", "T2 sequence (P9WNS5 whole entry)": "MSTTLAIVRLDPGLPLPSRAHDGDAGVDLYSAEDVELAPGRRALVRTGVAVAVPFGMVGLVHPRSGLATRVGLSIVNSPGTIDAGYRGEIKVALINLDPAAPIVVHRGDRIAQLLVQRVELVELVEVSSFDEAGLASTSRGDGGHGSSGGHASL", "experiment": "biochemical", "type": "binding", "design": "His tag (N); made in house"}, "hDUT [5]": {"target": "T3, hDUT (Homo sapiens, UniProt P33316)", "T3 sequence (P33316 1-164 isoform P33316-2)": "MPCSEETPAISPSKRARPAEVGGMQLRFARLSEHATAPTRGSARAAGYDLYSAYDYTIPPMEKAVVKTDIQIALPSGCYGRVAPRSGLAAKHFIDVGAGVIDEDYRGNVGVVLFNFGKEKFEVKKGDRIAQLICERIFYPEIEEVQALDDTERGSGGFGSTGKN", "experiment": "Isothermal titration calorimetry (ITC)", "type": "binding", "design": "His tag (N); made in house"}, "Taq polymerase [6]": {"target": "T1, Taq polymerase", "settings": "no Mg^2+, pH 7.5, 293 K"}, "EcMutT [7]": {"target": "T4, EcMutT (Escherichia coli, UniProt P08337)", "T4 sequence (P08337 whole entry)": "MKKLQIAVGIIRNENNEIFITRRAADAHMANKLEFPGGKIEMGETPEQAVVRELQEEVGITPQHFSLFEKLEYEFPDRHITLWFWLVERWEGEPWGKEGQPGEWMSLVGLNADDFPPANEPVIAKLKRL", "settings": "no Mg^2+, pH 7.5, 293 K"}, "hDUT [8]": {"target": "T3, hDUT", "settings": "no Mg^2+; for kcat: dUTP hydrolysis, 20 °C, pH 7.5", "method": "(§1) Continuous pH indicator-based assays were performed to measure enzyme activity at 20 °C as described in [26]. Briefly, 1 µM protein was used in a buffer pH 7.5 containing 1 mM HEPES, 100 mM KCl and 40 µM phenol red. A Specord 200 (Analytic, Jena, Germany) spectrophotometer and 10-mm-path length cuvettes were used, and absorbance was recorded at 559 nm. Initial velocity was determined from the first 10% of the progress curve. […] Data fitting was accomplished using OriginPro 7.5 (OriginLab Corp, Northampton, MA, USA)."}, "mtDUT [9]": {"target": "T2, mtDUT", "method": "as §1"}, "hDUT [10]": {"target": "T3, hDUT", "experiment": "Thermofluor stability assay", "type": "binding", "design": "His tag (N); made in house", "settings": "for Tm (5 mM Mg^2+): 5 mM MgCl2"}, "EcMutT [11]": {"target": "T4, EcMutT", "experiment": "biochemical"}, "mtDUT [12]": {"target": "T2, mtDUT", "settings": "cited from earlier work"}, "hDUT [13]": {"target": "T3, hDUT", "design": "His tag (N); made in house; method as in PMID 18519027, PMID 17848562", "settings": "dUTP hydrolysis; 5 mM Mg^2+, no EDTA; reported previously ref 20, 51; cited from earlier work"}, "hDUT [14]": {"target": "T3, hDUT", "design": "His tag (N); made in house; method as in PMID 20601405, PMID 17880943, PMID 17848562", "settings": "same titration in the presence of Mg^2+; cited from earlier work"}, "[15]": {"settings": "no Mg^2+, pH 7.5, 293 K, average and SD"}, "[16]": {"settings": "apparent, no Mg^2+, pH 7.5, 293 K, average and SD"}, "[17]": {"settings": "hDUT complexed with ligand (100 µM dUPNPP or 1 mM dUMP)"}, "[18]": {"settings": "fit of the titration shown in Figure S1B, no Mg^2+"}, "[19]": {"settings": "fit of the titration shown in Figure S1A, no Mg^2+"}}, "note": "Where “and” joins values, the source holds several entries; their conditions need not be identical. Equal entries are not always repeated. Where two headings read alike, the source gives them in different places."}
{"smiles": "Nc1ncnc2c1ncn2[C@@H]1O[C@H](COP(=O)(O)OP(=O)(O)OP(=O)(O)O)[C@@H](O)[C@H]1O", "note": "[ATP]", "values": [{"measurement": "Kd", "setting": "[1]", "result": 46.3, "unit": "µM"}]}
{"smiles": "O=C(O)CN(CCN(CC(=O)O)CC(=O)O)CC(=O)O", "note": "[EDTA, ethylene diamine tetraacetic acid]", "values": [{"measurement": "Kd", "setting": "Taq polymerase [2]", "result": 0.047, "unit": "µM"}, {"measurement": "ΔG", "setting": "[3]", "result": "-33.5 ± 3.8", "unit": "kJ/mol"}, {"measurement": "ΔH", "setting": "[3]", "result": "18.4 ± 1.3", "unit": "kJ/mol"}, {"measurement": "−TΔS", "setting": "[3]", "result": "-52.3 ± 2.5", "unit": "kJ/mol"}, {"measurement": "Kd", "setting": "[3]; apparent", "result": "2.53 ± 0.18", "unit": "µM"}, {"measurement": "Kd", "setting": "mtDUT [4]", "result": 0.078, "unit": "µM"}, {"measurement": "ΔG", "setting": "mtDUT [4]; [15]", "result": "-40.2 ± 0.84", "unit": "kJ/mol"}, {"measurement": "ΔH", "setting": "mtDUT [4]; [15]", "result": "-17.6 ± 4.18", "unit": "kJ/mol"}, {"measurement": "−TΔS", "setting": "mtDUT [4]; [15]", "result": "-22.2 ± 5.02", "unit": "kJ/mol"}, {"measurement": "Kd", "setting": "hDUT [5]; absence of Mg^2+", "result": 0.199, "unit": "µM"}, {"measurement": "Kd", "setting": "hDUT [5]; [16]", "result": "0.2 ± 0.009", "unit": "µM"}, {"measurement": "ΔG", "setting": "hDUT [5]; [15]", "result": "-37.7 ± 0", "unit": "kJ/mol"}, {"measurement": "ΔH", "setting": "hDUT [5]; [15]", "result": "-46.9 ± 1.7", "unit": "kJ/mol"}, {"measurement": "−TΔS", "setting": "hDUT [5]; [15]", "result": "9.2 ± 1.7", "unit": "kJ/mol"}, {"measurement": "ΔG", "setting": "Taq polymerase [6]", "result": "-41 ± 0", "unit": "kJ/mol"}, {"measurement": "ΔH", "setting": "Taq polymerase [6]", "result": "-26.4 ± 2.9", "unit": "kJ/mol"}, {"measurement": "−TΔS", "setting": "Taq polymerase [6]", "result": "-14.6 ± 2.9", "unit": "kJ/mol"}, {"measurement": "ΔG", "setting": "EcMutT [7]", "result": "-35.1 ± 0.42", "unit": "kJ/mol"}, {"measurement": "ΔH", "setting": "EcMutT [7]", "result": "-40.6 ± 0.084", "unit": "kJ/mol"}, {"measurement": "−TΔS", "setting": "EcMutT [7]", "result": "5.44 ± 0.42", "unit": "kJ/mol"}, {"measurement": "KM increase", "setting": "hDUT [8]; 30 µM EDTA", "result": 2.7, "unit": "fold"}, {"measurement": "kcat decreased to", "setting": "hDUT [8]; 100 µM EDTA", "result": 6, "unit": "%"}, {"measurement": "kcat", "setting": "hDUT [8]; 30 µM EDTA", "result": "3.30 ± 0.26", "unit": "s⁻¹"}, {"measurement": "kcat", "setting": "hDUT [8]; 100 µM EDTA", "result": "0.24 ± 0.03", "unit": "s⁻¹"}, {"measurement": "KM increase", "setting": "mtDUT [9]", "result": 3.7, "unit": "fold"}, {"measurement": "Tm (100 µM EDTA)", "setting": "hDUT [10]; apo hDUT", "result": "58.5 ± 0.1", "unit": "°C"}, {"measurement": "Kd", "setting": "EcMutT [11]", "result": "0.55 ± 0.066", "unit": "µM"}]}
{"smiles": "[Mg+2]", "note": "[Mg^2+]", "values": [{"measurement": "kcat", "setting": "mtDUT [12]", "result": "2.39 ± 0.16", "unit": "s⁻¹"}, {"measurement": "Km", "setting": "mtDUT [12]; dUTP hydrolysis, 5 mM Mg^2+, no EDTA, reported previously ref 20, 51", "result": "1.72 ± 0.51", "unit": "µM"}, {"measurement": "Tm (5 mM Mg^2+)", "setting": "hDUT [10]; apo hDUT", "result": "59.5 ± 0.3", "unit": "°C"}, {"measurement": "increase of melting temperature in the presence of Mg^2+", "setting": "hDUT [10]; apo hDUT, 5 mM Mg^2+ vs no Mg^2+", "result": 0.9, "unit": "°C"}, {"measurement": "Km", "setting": "hDUT [13]", "result": "2.26 ± 0.33", "unit": "µM"}, {"measurement": "kcat", "setting": "hDUT [13]", "result": "5.27 ± 0.24", "unit": "s⁻¹"}]}
{"smiles": "O=c1ccn([C@H]2C[C@H](O)[C@@H](COP(=O)(O)O)O2)c(=O)[nH]1", "note": "[dUMP]", "values": [{"measurement": "Tm (100 µM EDTA)", "setting": "hDUT [10]; [17]", "result": "58.7 ± 0.1", "unit": "°C"}, {"measurement": "Tm (5 mM Mg^2+)", "setting": "hDUT [10]; [17]", "result": "62.3 ± 0.1", "unit": "°C"}, {"measurement": "Tm (No Mg^2+, no EDTA)", "setting": "hDUT [10]; [17]", "result": "59.7 ± 0.1", "unit": "°C"}]}
{"smiles": "O=c1ccn([C@H]2C[C@H](O)[C@@H](COP(=O)(O)NP(=O)(O)OP(=O)(O)O)O2)c(=O)[nH]1", "note": "[dUPNPP]", "values": [{"measurement": "Kd", "setting": "hDUT [14]", "result": "2 to 7", "unit": "µM"}, {"measurement": "n (stoichiometry)", "setting": "mtDUT [4]", "result": 1}, {"measurement": "ΔG", "setting": "mtDUT [4]; [18]", "result": "–6.2 kcal/mol"}, {"measurement": "ΔH", "setting": "mtDUT [4]; [18]", "result": "–4.4 kcal/mol"}, {"measurement": "–TΔS", "setting": "mtDUT [4]; [18]", "result": "–1.8 kcal/mol"}, {"measurement": "ΔH", "setting": "mtDUT [4]; [15]", "result": "-18.8 ± 0.84", "unit": "kJ/mol"}, {"measurement": "−TΔS", "setting": "mtDUT [4]; [15]", "result": "-8.79 ± 1.7", "unit": "kJ/mol"}, {"measurement": "Kd", "setting": "hDUT [5]; [16]", "result": "44 µM and 43.9 µM"}, {"measurement": "Kd", "setting": "hDUT [5]; [19]", "result": 54, "unit": "µM"}, {"measurement": "n (stoichiometry)", "setting": "hDUT [5]; [19]", "result": 0.41}, {"measurement": "ΔG", "setting": "hDUT [5]; [19]", "result": "–5.7 kcal/mol"}, {"measurement": "ΔH", "setting": "hDUT [5]; [19]", "result": "–19.9 kcal/mol"}, {"measurement": "–TΔS", "setting": "hDUT [5]; [19]", "result": 59, "unit": "kJ/mol"}, {"measurement": "ΔG", "setting": "hDUT [5]; [15]", "result": "-24.7 ± 0.84", "unit": "kJ/mol"}, {"measurement": "ΔH", "setting": "hDUT [5]; [15]", "result": "-72.8 ± 15.1", "unit": "kJ/mol"}, {"measurement": "−TΔS", "setting": "hDUT [5]; [15]", "result": "48.1 ± 15.5", "unit": "kJ/mol"}, {"measurement": "Tm (100 µM EDTA)", "setting": "hDUT [10]; [17]", "result": "58.3 ± 0.1", "unit": "°C"}, {"measurement": "Tm (5 mM Mg^2+)", "setting": "hDUT [10]; [17]", "result": "63.9 ± 0.3", "unit": "°C"}, {"measurement": "Tm (No Mg^2+, no EDTA)", "setting": "hDUT [10]; [17]", "result": "59.1 ± 0.2", "unit": "°C"}]}
